Patent publication US20260159523A1, “PESTICIDALLY ACTIVE HETEROCYCLIC DERIVATIVES WITH SULFUR CONTAINING SUBSTITUENTS” (SYNGENTA CROP PROTECTION AG, priority 2022, published 2026)

Tests used:
Type in all cases: in vivo
Spodoptera littoralis = test: Activity against Spodoptera littoralis (Egyptian cotton leaf worm), cotton leaf discs; details: foliar, 72 h, application rate 200 ppm, L1 larvae, 3 days after infestation
Method: Activity Against Spodoptera littoralis (Egyptian Cotton Leaf Worm)
Cotton leaf discs were placed onto agar in 24-well microtiter plates and sprayed with aqueous test solutions prepared from 10'000 ppm DMSO stock solutions. After drying the leaf discs were infested with five L1 larvae. The samples were assessed for mortality, anti-feeding effect, and growth inhibition in comparison to untreated samples 3 days after infestation. Control of Spodoptera littoralis by a test sample is given when at least one of the categories mortality, anti-feedant effect, and growth inhibition is higher than the untreated sample.

Diabrotica balteata = test: Activity against Diabrotica balteata (corn root worm), maize sprouts; details: 96 h, application rate 200 ppm, L2 larvae, 4 days after infestation, read-out: effect in at least one of the two categories (mortality or growth inhibition)
Method: Activity Against Diabrotica balteata (Corn Root Worm)
Maize sprouts placed onto an agar layer in 24-well microtiter plates were treated with aqueous test solutions prepared from 10'000 ppm DMSO stock solutions by spraying. After drying, the plates were infested with L2 larvae (6 to 10 per well). The samples were assessed for mortality and growth inhibition in comparison to untreated samples 4 days after infestation.

Myzus persicae [1] = test: Activity against Myzus persicae (green peach aphid), feeding/contact activity; details: foliar, 144 h, application rate 200 ppm, sunflower leaf discs, mixed ages, 6 days after infestation
Method: Activity Against Myzus persicae (Green Peach Aphid) Feeding/Contact Activity
Sunflower leaf discs were placed onto agar in a 24-well microtiter plate and sprayed with aqueous test solutions prepared from 10'000 ppm DMSO stock solutions. After drying, the leaf discs were infested with an aphid population of mixed ages. The samples were assessed for mortality 6 days after infestation.

Plutella xylostella = test: Activity against Plutella xylostella (diamond back moth), artificial diet; details: 192 h, application rate 200 ppm, eggs, 8 days after infestation, read-out: effect in at least one of the two categories (mortality or growth inhibition)
Method: Activity Against Plutella xylostella (Diamond Back Moth)
24-well microtiter plates with artificial diet were treated with aqueous test solutions prepared from 10'000 ppm DMSO stock solutions by pipetting. After drying, Plutella eggs were pipetted through a plastic stencil onto a gel blotting paper and the plate was closed with it. The samples were assessed for mortality and growth inhibition in comparison to untreated samples 8 days after infestation.

Chilo suppressalis = test: Activity against Chilo suppressalis (striped rice stemborer), artificial diet; details: 144 h, application rate 200 ppm, L2 larvae, 6 days after infestation
Method: Activity Against Chilo suppressalis (Striped Rice Stemborer)
24-well microtiter plates with artificial diet were treated with aqueous test solutions prepared from 10'000 ppm DMSO stock solutions by pipetting. After drying, the plates were infested with L2 larvae (6-8 per well). The samples were assessed for mortality, anti-feeding effect, and growth inhibition in comparison to untreated samples 6 days after infestation. Control of Chilo suppressalis by a test sample is given when at least one of the categories mortality, anti-feedant effect, and growth inhibition is higher than the untreated sample.

Myzus persicae [2] = test: Activity against Myzus persicae (green peach aphid), systemic activity; details: 144 h, test rate 24 ppm, pea seedling roots in test solution, 6 days
Method: Activity Against Myzus persicae (Green Peach Aphid) Systemic Activity
Roots of pea seedlings infested with an aphid population of mixed ages were placed directly into aqueous test solutions prepared from 10'000 DMSO stock solutions. The samples were assessed for mortality 6 days after placing seedlings into test solutions.

Euschistus heros = test: Activity against Euschistus heros (neotropical brown stink bug), soybean leaves; details: 120 h, application rate 200 ppm, N2 nymphs, 5 days after infestation, read-out: effect in at least one of the two categories (mortality or growth inhibition)
Method: Activity Against Euschistus heros (Neotropical Brown Stink Bug)
Soybean leaves on agar in 24-well microtiter plates were sprayed with aqueous test solutions prepared from 10'000 ppm DMSO stock solutions. After drying the leaves were infested with N2 nymphs. The samples were assessed for mortality and growth inhibition in comparison to untreated samples 5 days after infestation.

CCS(=O)(=O)c1cc(C2(C#N)CC2)cnc1-c1coc2ccc(-c3cc(F)cc(F)c3)cc2c1=O [P.7, 1-[6-[6-(3,5-difluorophenyl)-4-oxo-chromen-3-yl]-5-ethylsulfonyl-3-pyridyl]-cyclopropanecarbonitrile]
≥ 80%: percent control (mortality, anti-feedant effect or growth inhibition) at 200 ppm (Spodoptera littoralis) | percent effect (mortality or growth inhibition) at 200 ppm (Diabrotica balteata) | mortality at 200 ppm (Myzus persicae [1])

CCS(=O)(=O)c1cc(C2(C#N)CC2)cnc1-c1coc2ccc(-c3ccc(F)cc3)cc2c1=O [P.8, 1-[5-ethylsulfonyl-6-[6-(4-fluorophenyl)-4-oxo-chromen-3-yl]-3-pyridyl]-cyclopropanecarbonitrile]
≥ 80%: percent effect (mortality or growth inhibition) at 200 ppm (Plutella xylostella) | percent control (mortality, anti-feedant effect or growth inhibition) at 200 ppm (Chilo suppressalis)

CCS(=O)(=O)c1cc(C2(C#N)CC2)cnc1-c1coc2ccc(C(F)(F)F)cc2c1=O [P.1, 1-[5-ethylsulfonyl-6-[4-oxo-6-(trifluoromethyl)chromen-3-yl]-3-pyridyl]cyclopropanecarbonitrile]
≥ 80%: percent effect (mortality or growth inhibition) at 200 ppm (Plutella xylostella) | mortality at 24 ppm (Myzus persicae [2]) | percent control (mortality, anti-feedant effect or growth inhibition) at 200 ppm (Spodoptera littoralis) | percent control (mortality, anti-feedant effect or growth inhibition) at 200 ppm (Chilo suppressalis) | percent effect (mortality or growth inhibition) at 200 ppm (Diabrotica balteata) | percent effect (mortality or growth inhibition) at 200 ppm (Euschistus heros) | mortality at 200 ppm (Myzus persicae [1])

CCS(=O)(=O)c1cc(C2(C#N)CC2)cnc1-c1coc2ccc(I)cc2c1=O [P.6, 1-[5-ethylsulfonyl-6-(6-iodo-4-oxo-chromen-3-yl)-3-pyridyl]cyclo-propanecarbonitrile]
≥ 80%: percent effect (mortality or growth inhibition) at 200 ppm (Plutella xylostella) | percent control (mortality, anti-feedant effect or growth inhibition) at 200 ppm (Spodoptera littoralis) | percent control (mortality, anti-feedant effect or growth inhibition) at 200 ppm (Chilo suppressalis) | percent effect (mortality or growth inhibition) at 200 ppm (Diabrotica balteata) | percent effect (mortality or growth inhibition) at 200 ppm (Euschistus heros) | mortality at 200 ppm (Myzus persicae [1])

CCS(=O)(=O)c1cc(C2(C#N)CC2)cnc1-c1coc2ccc(F)cc2c1=O [P.2, 1-[5-ethylsulfonyl-6-(6-fluoro-4-oxo-chromen-3-yl)-3-pyridyl]cyclo-propanecarbonitrile]
≥ 80%: percent effect (mortality or growth inhibition) at 200 ppm (Plutella xylostella) | mortality at 24 ppm (Myzus persicae [2]) | percent control (mortality, anti-feedant effect or growth inhibition) at 200 ppm (Spodoptera littoralis) | percent control (mortality, anti-feedant effect or growth inhibition) at 200 ppm (Chilo suppressalis) | percent effect (mortality or growth inhibition) at 200 ppm (Diabrotica balteata) | percent effect (mortality or growth inhibition) at 200 ppm (Euschistus heros)

CCS(=O)(=O)c1cc(C2(C#N)CC2)cnc1-c1coc2ccc(C#N)cc2c1=O [P.4, 3-[5-(1-cyanocyclopropyl)-3-ethylsulfonyl-2-pyridyl]-4-oxo-chromene-6-carbonitrile]
≥ 80%: percent effect (mortality or growth inhibition) at 200 ppm (Plutella xylostella) | mortality at 24 ppm (Myzus persicae [2])

CCS(=O)(=O)c1cc(C2(C#N)CC2)cnc1-c1coc2ccc(Cl)cc2c1=O [P.3, 1-[6-(6-chloro-4-oxo-chromen-3-yl)-5-ethylsulfonyl-3-pyridyl]-cyclopropanecarbonitrile]
≥ 80%: percent effect (mortality or growth inhibition) at 200 ppm (Plutella xylostella) | percent control (mortality, anti-feedant effect or growth inhibition) at 200 ppm (Spodoptera littoralis) | percent control (mortality, anti-feedant effect or growth inhibition) at 200 ppm (Chilo suppressalis) | percent effect (mortality or growth inhibition) at 200 ppm (Diabrotica balteata) | percent effect (mortality or growth inhibition) at 200 ppm (Euschistus heros) | mortality at 200 ppm (Myzus persicae [1])

CCS(=O)(=O)c1cc(C2(C#N)CC2)cnc1-c1coc2ccc(Br)cc2c1=O [P.5, 1-[6-(6-bromo-4-oxo-chromen-3-yl)-5-ethylsulfonyl-3-pyridyl]-cyclopropanecarbonitrile]
≥ 80%: percent effect (mortality or growth inhibition) at 200 ppm (Plutella xylostella) | percent control (mortality, anti-feedant effect or growth inhibition) at 200 ppm (Spodoptera littoralis) | percent control (mortality, anti-feedant effect or growth inhibition) at 200 ppm (Chilo suppressalis) | percent effect (mortality or growth inhibition) at 200 ppm (Diabrotica balteata) | percent effect (mortality or growth inhibition) at 200 ppm (Euschistus heros)
